Test results: PMC9841576, “Characterisation of C101248: A novel selective THIK-1 channel inhibitor for the modulation of microglial NLRP3-inflammasome” (Neuropharmacology, 2023)

What was measured:
Assay type in all cases: cell-based
[1] = tested on: NLRP3-dependent release of IL-1β; assay: LPS/ATP-induced IL-1β release from differentiated THP1 cells overexpressing human THIK-1; conditions: 1 μM, THIK-1 overexpressing THP1 cells
Protocol: (§1) THP1 cells, obtained from ATCC, are monocytes isolated from peripheral blood of a leukaemia patient. THP1 cells were grown in RPMI 1640 supplemented with 10% fetal bovine serum (FBS, Hyclone), 1% PenStrep (Invitrogen), and 1% GlutaMax (Invitrogen), and 0.05 mM of 2-mercaptoethanol. To overexpress human THIK-1, THP1 cells were differentiated with 100 ng/ml PMA for 24 h prior to transfection with THIK-1 mRNA synthesized as described in the supplementary material. Cell suspensions (2.5 × 10^6 cells in […]) in the presence of 200 μg/ml mRNA were electroporated with the MaxCyte (STX instrument) in an OC-25 MaxCyte Electroporation cassette using manufacturer settings for THP1 cells. Cell suspensions were transferred to a 6-well plate and allowed to recover for 20 min at 37 °C. Cells were seeded into 384-well plates (10,000 cells/well) for thallium flux assays or 96-well plates (50,000 cells/well) for inflammasome assays the following day. Overexpressing and mock-transfected cells were primed with 100 ng/ml of LPS for 3.5 h prior to addition of compounds 30 min before stimulation with 5 mM ATP. Supernatants were collected 2 h after addition of ATP and stored at −20 °C until the detection of IL-1β.
IL-1β from culture supernatants was measured with DuoSet ELISA kit (R&D Systems) following the manufacturer instructions.

[2] = target: T1, THIK-1 (Homo sapiens, UniProt Q9HB14); assay: Thallium influx in human THIK-1 overexpressing differentiated THP1 cells; conditions: THIK-1 mRNA-transfected differentiated THP1 cells; read-out: IC50, block of thallium influx
T1 construct: expressed in transfected cells
T1 sequence (Q9HB14 1-408): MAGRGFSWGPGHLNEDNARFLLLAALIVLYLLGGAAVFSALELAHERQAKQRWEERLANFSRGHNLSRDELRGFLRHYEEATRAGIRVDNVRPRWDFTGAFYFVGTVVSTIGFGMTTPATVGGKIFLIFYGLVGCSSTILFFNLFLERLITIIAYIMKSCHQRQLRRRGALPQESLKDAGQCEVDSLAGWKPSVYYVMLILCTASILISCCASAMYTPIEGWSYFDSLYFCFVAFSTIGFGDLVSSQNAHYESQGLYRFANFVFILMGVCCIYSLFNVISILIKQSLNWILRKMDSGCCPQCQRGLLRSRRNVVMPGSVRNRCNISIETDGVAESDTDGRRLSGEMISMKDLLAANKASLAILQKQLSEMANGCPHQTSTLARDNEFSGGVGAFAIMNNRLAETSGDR
Protocol: as §1, with “Overexpressing and mock-transfected cells were primed with 100 ng/ml of LPS for 3.5 h prior to addition of compounds 30 min before stimulation with 5 mM ATP. Supernatants were collected 2 h after addition of ATP and stored at −20 °C until the detection of IL-1β.” left out
A fluorescence-based thallium influx assay (Molecular Devices potassium assay kit) was used to monitor channel activity. […] Using a fluorescent imaging plate reader (FLIPR) tetra plate reader, 15 μl thallium stimulus solution was added to the cell plate and the fluorescence signal recorded every second for 1 min (excitation: 470–495 nm, emission: 515–575 nm).

[3] = target: T1, THIK-1; assay: FLIPR thallium influx assay, HEK-hTHIK-1 cells; conditions: HEK-hTHIK-1, normalised to TPA controls; read-out: IC50, inhibition of THIK-1 constitutive activity (thallium influx)
Protocol: HEK-293 cells were transfected with human THIK-1, TREK-1, TWIK-2, or mouse THIK-1 cDNA cloned into pcDNA3.1, using either Fugene HD transfection reagent (Promega) or electroporation (MaxCyte STX instrument). Cells stably expressing the relevant genes were selected based on resistance to 500 μg/ml geneticin (Gibco). For human THIK-1 and TWIK-2 expressing cells, monoclonal lines were isolated by limited dilution cloning; mouse THIK-1 and human TREK-1 expressing cells were maintained as polyclonal pools. The HEK-293 pools and monoclones stably expressing the relevant genes were maintained in DMEM (Life Technologies), supplemented with 10% FCIII (HyClone, Fetal clone III) and 500 μg/ml geneticin. A CHO-Kv2.1 cell line was purchased from Millipore (accession NM_004975) and maintained in F12 (Life Technologies), supplemented with 10% FCSIII (Thermo Scientific) and 500 μg/ml geneticin (Life Technologies). For thallium flux assays, banks of frozen cell aliquots were prepared the day prior to assay, cells were thawed into media and seeded into PDL coated 384-well plates (Corning) at 25,000 (human/mouse THIK-1, TREK-1) or 30,000 (TWIK-2) cells/well (25 μl/well). CHO-Kv2.1 cells were seeded into non-PDL coated plates (Corning) at 5000 cells/well. Plated cells were incubated overnight at 37 °C, 5% CO2 in a humidified atmosphere. For Q-Patch assays, cells were cultured for 7 days prior to assay, dissociated, and diluted to 1–2.5 million/ml in EX-CELL ACF serum free media containing HEPES (25 mM; Life Technologies), penicillin/streptomycin (100 U/ml, 100 μg/ml; Life Technologies) and a trypsin inhibitor (0.04 mg/ml).
A fluorescence-based thallium influx assay (Molecular Devices potassium assay kit) was used to monitor channel activity. In brief, component A was reconstituted in 17 ml of chloride-free assay buffer (130 mM sodium D-gluconate, 5 mM potassium D-gluconate, 2 mM calcium D-gluconate, 1 mM magnesium D-gluconate, 5 mM NaHCO3, 20 mM HEPES; pH adjusted to 7.4 with NaOH and filtered (0.45 μm filter)) and component C reconstituted in 30 μl of DMSO. Components A and C were combined, and probenecid was added (Life Technologies; final assay concentration (FAC) 4.75 mM for HEK cell lines and 2.47 mM for CHO-Kv2.1) to provide the final dye solution. Media was removed from the cell plates and replaced with dye (20 μl/well) and the plates were incubated at room temperature in the dark for 60 min. On the day of the assay, a diluted compound plate (3x FAC in 1.5% DMSO) was created. Control wells contained either DMSO vehicle (1.5%, 3x FAC) or tetrapentylammonium chloride (TPA; Sigma, 258962; 1.5 mM in 1.5% DMSO, 3x FAC). A 3x thallium stimulation plate was also prepared, to provide a FAC of either 1 mM (human THIK-1) or 3 mM (mouse THIK-1, TREK-1, TWIK-2) thallium sulphate (in assay buffer). For Kv2.1, the FAC of thallium sulphate was 2.6 mM and this was prepared in assay buffer containing potassium sulphate (Sigma P9458; FAC 23.3 mM). Following 60 min of dye loading, 10 μl from the 3x FAC compound plate was added into the cell plate, which was then incubated for 15 min at room temperature in the dark. Using a fluorescent imaging plate reader (FLIPR) tetra plate reader, 15 μl thallium stimulus solution was added to the cell plate and the fluorescence signal recorded every second for 1 min (excitation: 470–495 nm, emission: 515–575 nm).

Row | Structure (SMILES) | effect on ATP-stimulated IL-1β release [1] | IC50 [2] | IC50 [3]
1 | CC(C)(O)c1coc(S(=O)(=O)NC(=O)Nc2c3c(cc4c2CCC4)CCC3)c1 [MCC950, reference compound] | completely blocked | – | –
2 | CCCCC[N+](CCCCC)(CCCCC)CCCCC [TPA, tetrapentylammonium chloride, reference compound] | – | 6.8 µM | 4.7 µM
